Patent US20050282159A1, “Rpob gene of streptomyces, primer specific to streptomyces, and identification method of streptomyces having rifampin resistance or sensitivity by using the same” (priority 2001, published 2005)

How the values were obtained:
S. anabdii KCTC 9687 = experiment: rifampin genotype by rpoB nucleotide sequence analysis; details: TCG (TCC) genotype
Protocol: (§1) The primer sets of SEQ ID NOs: 1 and 2 were used to amplify rpoB genes of 60 strains, and nucleotides of the […] products were analyzed with an automatic sequencer. SRPOF1 as a forward primer and SRPOR1 as a backward primer were used.

S. coralus KCCM 40642 = experiment: as above; details: TCG (TCC) genotype
Protocol: as §1

S. caseius KCCM 40740 = experiment: as above; details: TCG (TCC) genotype
Protocol: as §1

S. candidus KCTC 9020 = details: TCG (TCC) genotype
Protocol: as §1

[1] = tested on: S. californicus KCCM 40605; details: TCG (TCC) genotype
Protocol: as §1

[2] = tested on: S. aburaviensis KCTC 9663; details: TCG (TCC) genotype
Protocol: as §1

S. albospinus KCTC 9762 = details: TCG (TCC) genotype
Protocol: as §1

S. piosus KCCM 40480 = details: AAC genotype
Protocol: as §1

S. halstedii KCCM 40613 = details: TCG (TCC) genotype
Protocol: as §1

S. erythraeus KCCM 40477 = details: TCG (TCC) genotype
Protocol: as §1

S. cellulose KCTC 9703 = details: AAC genotype
Protocol: as §1

S. carpinensis KCTC 9128 = details: TCG (TCC) genotype
Protocol: as §1

[3] = tested on: S. citreofluorescens KCTC 9710; details: TCG (TCC) genotype
Protocol: as §1

S. humiferus KCTC 9116 = details: AAC genotype
Protocol: as §1

S. lividans KCTC 1154 = details: AAC genotype
Protocol: as §1

[4] = tested on: S. coeruleofuscus KCCM 40506; details: TCG (TCC) genotype
Protocol: as §1

[5] = tested on: S. griseoruber KCCM 40658; details: TCG (TCC) genotype
Protocol: as §1

[6] = tested on: S. indigoferus KCCM 40495; details: TCG (TCC) genotype
Protocol: as §1

S. althioticus KCTC 9752 = details: AAC genotype
Protocol: as §1

S. kurssanovi KCCM 40527 = details: TCG (TCC) genotype
Protocol: as §1

[7] = tested on: S. griseolosporeus KCTC 9791; details: TCG (TCC) genotype
Protocol: as §1

[8] = tested on: S. cinnamoneus KCCM 40572; details: TCG (TCC) genotype
Protocol: as §1

S. chivaensis KCTC 9786 = details: AAC genotype
Protocol: as §1

S. coelescens KCCM 40742 = details: AAC genotype
Protocol: as §1

S. fulvissimus KCTC 9773 = details: TCG (TCC) genotype
Protocol: as §1

S. anulatus KCCM 40190 = details: AAC genotype
Protocol: as §1

S. cremeus KCCM 40509 = details: TCG (TCC) genotype
Protocol: as §1

[9] = tested on: S. xanthocidicus KCCM 40286; details: AAC genotype
Protocol: as §1

S. erumpens KCTC 9729 = details: TCG (TCC) genotype
Protocol: as §1

[10] = tested on: S. albovinaceous KCCM 40177; details: TCG (TCC) genotype
Protocol: as §1

[11] = tested on: S. cyaneofuscatus KCCM 40517; details: TCG (TCC) genotype
Protocol: as §1

S. fumanus KCCM 40522 = details: TCG (TCC) genotype
Protocol: as §1

S. gougeroti KCCM 40681 = details: TCG (TCC) genotype
Protocol: as §1

S. tendae KCCM 40105 = details: AAC genotype
Protocol: as §1

[12] = tested on: S. yokosukanens KCCM 40633; details: AAC genotype
Protocol: as §1

S. eurythermus KCTC 9731 = details: TCG (TCC) genotype
Protocol: as §1

[13] = tested on: S. chromogenes KCCM 40727; details: TCG (TCC) genotype
Protocol: as §1

[14] = tested on: S. hachijoense KCCM 32306; details: TCG (TCC) genotype
Protocol: as §1

S. murinus KCTC 9492 = details: AAC genotype
Protocol: as §1

[15] = tested on: S. flavovirens KCCM 40165; details: TCG (TCC) genotype
Protocol: as §1

[16] = tested on: S. griseoflavus KCCM 12624; details: AAC genotype
Protocol: as §1

[17] = tested on: S. ambofaciens KCCM 40182; details: AAC genotype
Protocol: as §1

S. umbrinus KCCM 40316 = details: AAC genotype
Protocol: as §1

[18] = tested on: S. amakusaensis KCTC 9753; details: TCG (TCC) genotype
Protocol: as §1

S. fimbriatus KCCM 11888 = details: TCG (TCC) genotype
Protocol: as §1

S. azureus KCCM 40485 = details: TCG (TCC) genotype
Protocol: as §1

SMILES: CO[C@H]1/C=C/O[C@@]2(C)Oc3c(C)c(O)c4c(O)c(c(/C=N/N5CCN(C)CC5)c(O)c4c3C2=O)NC(=O)/C(C)=C\C=C\[C@H](C)[C@H](O)[C@@H](C)[C@@H](O)[C@@H](C)[C@H](OC(C)=O)[C@@H]1C [rifampin]
- genotype (rifampin-resistant or -sensitive strain) (S. anabdii KCTC 9687): −
- genotype (rifampin-resistant or -sensitive strain) (S. coralus KCCM 40642): −
- genotype (rifampin-resistant or -sensitive strain) (S. caseius KCCM 40740): −
- genotype (rifampin-resistant or -sensitive strain) (S. candidus KCTC 9020): −
- genotype (rifampin-resistant or -sensitive strain) [1]: −
- genotype (rifampin-resistant or -sensitive strain) [2]: −
- genotype (rifampin-resistant or -sensitive strain) (S. albospinus KCTC 9762): −
- genotype (rifampin-resistant or -sensitive strain) (S. piosus KCCM 40480): +
- genotype (rifampin-resistant or -sensitive strain) (S. halstedii KCCM 40613): −
- genotype (rifampin-resistant or -sensitive strain) (S. erythraeus KCCM 40477): −
- genotype (rifampin-resistant or -sensitive strain) (S. cellulose KCTC 9703): +
- genotype (rifampin-resistant or -sensitive strain) (S. carpinensis KCTC 9128): −
- genotype (rifampin-resistant or -sensitive strain) [3]: −
- genotype (rifampin-resistant or -sensitive strain) (S. humiferus KCTC 9116): +
- genotype (rifampin-resistant or -sensitive strain) (S. lividans KCTC 1154): +
- genotype (rifampin-resistant or -sensitive strain) [4]: −
- genotype (rifampin-resistant or -sensitive strain) [5]: −
- genotype (rifampin-resistant or -sensitive strain) [6]: −
- genotype (rifampin-resistant or -sensitive strain) (S. althioticus KCTC 9752): +
- genotype (rifampin-resistant or -sensitive strain) (S. kurssanovi KCCM 40527): −
- genotype (rifampin-resistant or -sensitive strain) [7]: −
- genotype (rifampin-resistant or -sensitive strain) [8]: −
- genotype (rifampin-resistant or -sensitive strain) (S. chivaensis KCTC 9786): +
- genotype (rifampin-resistant or -sensitive strain) (S. coelescens KCCM 40742): +
- genotype (rifampin-resistant or -sensitive strain) (S. fulvissimus KCTC 9773): −
- genotype (rifampin-resistant or -sensitive strain) (S. anulatus KCCM 40190): +
- genotype (rifampin-resistant or -sensitive strain) (S. cremeus KCCM 40509): −
- genotype (rifampin-resistant or -sensitive strain) [9]: +
- genotype (rifampin-resistant or -sensitive strain) (S. erumpens KCTC 9729): −
- genotype (rifampin-resistant or -sensitive strain) [10]: −
- genotype (rifampin-resistant or -sensitive strain) [11]: −
- genotype (rifampin-resistant or -sensitive strain) (S. fumanus KCCM 40522): −
- genotype (rifampin-resistant or -sensitive strain) (S. gougeroti KCCM 40681): −
- genotype (rifampin-resistant or -sensitive strain) (S. tendae KCCM 40105): +
- genotype (rifampin-resistant or -sensitive strain) [12]: +
- genotype (rifampin-resistant or -sensitive strain) (S. eurythermus KCTC 9731): −
- genotype (rifampin-resistant or -sensitive strain) [13]: −
- genotype (rifampin-resistant or -sensitive strain) [14]: −
- genotype (rifampin-resistant or -sensitive strain) (S. murinus KCTC 9492): +
- genotype (rifampin-resistant or -sensitive strain) [15]: −
- genotype (rifampin-resistant or -sensitive strain) [16]: +
- genotype (rifampin-resistant or -sensitive strain) [17]: +
- genotype (rifampin-resistant or -sensitive strain) (S. umbrinus KCCM 40316): +
- genotype (rifampin-resistant or -sensitive strain) [18]: −
- genotype (rifampin-resistant or -sensitive strain) (S. fimbriatus KCCM 11888): −
- genotype (rifampin-resistant or -sensitive strain) (S. azureus KCCM 40485): −
